Experimental data from patent publication US9609810B2, “Methods for modulating photosynthetic activity” (priority 2012, dated 2017).

How the values were obtained:
Assay type in all cases: in vivo
[1] = tested on: dwarf sunflower (Helianthus annuus L.) plants; experiment: Stomata conductance and transpiration in greenhouse-grown plants; settings: foliar application of aqueous 10 ppm NaHS, pH 7.4, once per evening for one week; compared to control plants
From the text: In the following example, a treatment group of dwarf sunflower (Helianthus annuus L.) plants is sprayed once each evening with an aqueous “treatment solution” of 10 ppm sodium hydrosulfide (NaHS) in distilled water, buffered with phosphate, to a pH of 7.4. The control group of plants is sprayed once each evening with an equivalent amount of “control solution” consisting of distilled water buffered with phosphate to a pH of 7.4. The treatment and control groups each include seven plants. The dwarf sunflower plants are grown from seed in 20-cm diameter plastic pots. Each pot contains one plant growing in a peat, sand mixture. […]
Stomata conductance is measured with a steady state porometer (LiCor model LI-1600, LiCor Inc., Lincoln, Nebr.). Measurements are made on the abaxial leaf surfaces where the majority of stomata are located and are recorded after the treated group and the control group are sprayed once per evening for one week.
The transpiration rate is determined by calculating the vapor pressure at the evaporating surface (leaf) and the air vapor pressure. The saturated vapor pressure of the leaf is calculated by measuring leaf temperature. Leaf temperature is measured using an external thermocouple as well as the LICor porometer. […] Relative humidity is determined using a sling psychrometer. […] Averages for 7 plants of each group are calculated and plotted.

[2] = tested on: potted pepper (Capsicum sp.) plants; experiment: Transpiration reduction in pepper plants grown in a growth chamber; settings: compared to control plants
Procedure: In the following example, a treatment group of potted pepper (Capsicum sp.) plants is sprayed once each evening with an aqueous “treatment solution” of 10 ppm sodium hydrosulfide (NaHS) in distilled water, buffered with phosphate, to a pH of 7.4. The control group of plants is sprayed once each evening with an equivalent amount of “control solution” consisting of distilled water buffered with phosphate to a pH of 7.4. Potted pepper plants are grown in a temperature controlled growth-chamber under metal halide lamps. Average temperature in the growth chamber is about 20° C., and relative humidity is about 60%. Pots contain a greenhouse mix peat soil enriched with slow release fertilizer. Environmental conditions (light, temperature, and relative humidity) inside the growth chamber are monitored every 30 minutes during the experiment using standard environmental sensors such as a pyranometer, thermocouple psychrometer, relative humidity sensor and a datalogger. […]
The treatment solution of aqueous sodium hydrosulfide (NaHS) is sprayed once each night onto the top surface and bottom surface of leaves as described in Example 1 using a simple hand sprayer. The control group receives the same quantity of water alone which is sprayed each night onto the leaves in the same fashion as the treated group. […]

corn (Zea Maize) = experiment: Water used to irrigate corn grown under field conditions; settings: end of growing season; compared to non-treated control corn
From the text: In the following example, a treatment group of corn (Zea Maize) is sprayed once each evening with an aqueous “treatment solution” of 10 ppm sodium hydrosulfide (NaHS) in distilled water, buffered with phosphate, to a pH of 7.4. The control group of plants is sprayed once each evening with an equivalent amount of “control solution” consisting of distilled water buffered with phosphate to a pH of 7.4. An experimental plot may be setup with 8 repetitions to obtain statistically independent results. The treatment (aqueous NaHS) and control (water alone) plots may be set up following a randomized scheme. […]
Water Use Measurements. […] This allows the measurement of water used in every single plot such that evaluation of water use differences between the water-alone control crops and NaHS treated crops can be monitored. The system is installed in such a way that every plant may receive a given amount of water determined by using constant rate water applicators. […] Soil water content (SWC) is measured continuously, using a Time Domain Reflectometer sensor installed in each of the twenty-four rows. […] The sensors are monitored by a datalogger (model 23X, Campbell Scientific Inc., Logan, Utah). The probes may be 30 cm long, and can be buried vertically, such that average volumetric water content of the top 30 cm of the soil is measured. […] The soil water content may be measured every 60 seconds. […]

## S [NaHS, sodium hydrosulfide]
[1]
  stomata conductance: decrease in stomata conductance
[2]; optimally watered plants sprayed each night with 10 ppm NaHS
  transpiration: reduction in transpiration
[2]; water stress conditions, sprayed each night with 10 ppm NaHS
  cumulative water use: cumulative water use in control plants is consistently higher
Corn (Zea Maize)
  biomass production (total dry matter): higher biomass production
